Results as given in patent US20170306090A1, “METHOD FOR MAKING POLYCARBONATE USING A LIQUID KETONE MIXTURE” (SABIC Global Technologies B.V., priority 2014, published 2017).

Assay: Solubility of diphenyl carbonate in various ketones (gravimetric method)
[1] = Example 1, Temperature 70 °C, molar ratio of ketone to DPC 1:1
[2] = Example 2, Temperature 50 °C, molar ratio of ketone to DPC 1:1
[3] = Example 3, Temperature 50 °C, molar ratio of ketone to DPC 1.5:1
[4] = Example 4, Temperature 25 °C, molar ratio of ketone to DPC 1:1
[5] = Example 5, Temperature 25 °C, molar ratio of ketone to DPC 1.5:1
[6] = Example 6, Temperature 25 °C, molar ratio of ketone to DPC 2:1

Procedure: The solubility of diphenyl carbonate in various ketones was determined. Solubility was determined based on a gravimetric method.

Compound | Solubility of diphenyl carbonate in the ketone [1] | Solubility of diphenyl carbonate in the ketone [2] | Solubility of diphenyl carbonate in the ketone [3] | Solubility of diphenyl carbonate in the ketone [4] | Solubility of diphenyl carbonate in the ketone [5] | Solubility of diphenyl carbonate in the ketone [6]
CCC(=O)CC [Diethyl ketone, diethyl ketone] | Yes | No | Yes | No | No | Yes
CC(=O)CC(C)C [MIBK, methyl isobutyl ketone] | Yes | No | Yes | No | No | No
